In US20040127569A1, “Methods for treatment and prevention of gastrointestinal conditions” (priority 2002, published 2004):
Structures can show the parent of a compound that is named as a salt. Where two headings read alike, the source gives them in different places.

Tests used:
i-NOS = i-NOS (Homo sapiens, UniProt P35228); experiment: i-NOS inhibition, comparison with NIL amides; type: biochemical
Human Cartilage = experiment: Human cartilage explant assay (nitrite production, IL-1β induced); type: cell-based; conditions: inhibition of nitrite production, IL-1β stimulated explants
Protocol: Human Cartilage Explant Assay
Bone pieces are rinsed twice with Dulbecco's Phosphate Buffered Saline (GibcoBRL) and once with Dulbecco's Modified Eagles Medium (GibcoBRL) and placed into a petri dish with phenol red free Minimum Essential Medium (MEM) (GibcoBRL). Cartilage was cut into small explants of approximately 15-45 mg in weight and one or two explants per well are placed into either 96 or 48 well culture plates with 200-500 μL of culture media per well. The culture media was either a custom modification of Minimum Essential Medium(Eagle) with Earle's salts (GibcoBRL) prepared without L-Arginine, without L-Glutamine and without phenol red or a custom modification of serumless Neuman and Tytell (GibcoBRL) medium prepared without L-arginine, without insulin, without ascorbic acid, without L-glutamine and without phenol red. Both are supplemented before use with 100 μM L-Arginine (Sigma), 2 mM L-glutamine, 1×HL-1 supplement (BioWhittaker), […] ascorbic acid (Sigma) and 150 pg/ml recombinant human IL-1β (RD Systems) to induce nitric oxide synthase. Compounds are then added in 10 μL aliquots and the explants incubated at 37° C. with 5% CO2 for 18-24 hours. The day old supernatant is then discarded and replaced with fresh culture media containing recombinant human IL-1β and compound and incubated for another 20-24 hours. […] All samples are done in quadruplicate. Unstimulated controls are cultured in media in the absence of recombinant human IL-1β. IC50 values (Table I) are determined from plotting the percent inhibition of nitrite production at six different concentrations of inhibitor.

[1] = test system: LPS-induced increase in plasma nitrite/nitrate levels; experiment: In vivo assay: endotoxin-treated rats, plasma nitrite/nitrate; set-up: species or system rat; conditions: oral administration, plasma nitrite/nitrate 5 hours post-treatment
Protocol: Plasma nitrite/nitrate levels can be determined 5 hours post-treatment.

hiNOS = biological target: T1, hiNOS (Homo sapiens, UniProt P35228); experiment: Assay for time dependent inhibition, hiNOS; type: biochemical; conditions: 60 min preincubation
T1 construct: made in house; host or cells: Sf9 insect cells (baculovirus vector)
Protocol: Assay for Time Dependent Inhibition
Aliquots (10 μL) are removed at 0, 10, 21 and 60 minutes and immediately added to a citrulline assay enzyme reaction mixture containing L-[2,3-^3H]-arginine and a final L-arginine concentration of 30 μM in a final volume of 100 μL. The reaction is allowed to proceed for 15 minutes at 37° C. and terminated by addition of stop buffer and chromatography with Dowex 50W X-8 cation exchange ion exchange resin as described for the citrulline NOS assay. The % inhibition of NOS activity by an inhibitor was taken as the percent inhibition in activity compared to control enzyme preincubated for the same time in the absence of inhibitor.

[2] = Rattus norvegicus, read-out: ED50

Sequence of i-NOS (P35228 whole entry): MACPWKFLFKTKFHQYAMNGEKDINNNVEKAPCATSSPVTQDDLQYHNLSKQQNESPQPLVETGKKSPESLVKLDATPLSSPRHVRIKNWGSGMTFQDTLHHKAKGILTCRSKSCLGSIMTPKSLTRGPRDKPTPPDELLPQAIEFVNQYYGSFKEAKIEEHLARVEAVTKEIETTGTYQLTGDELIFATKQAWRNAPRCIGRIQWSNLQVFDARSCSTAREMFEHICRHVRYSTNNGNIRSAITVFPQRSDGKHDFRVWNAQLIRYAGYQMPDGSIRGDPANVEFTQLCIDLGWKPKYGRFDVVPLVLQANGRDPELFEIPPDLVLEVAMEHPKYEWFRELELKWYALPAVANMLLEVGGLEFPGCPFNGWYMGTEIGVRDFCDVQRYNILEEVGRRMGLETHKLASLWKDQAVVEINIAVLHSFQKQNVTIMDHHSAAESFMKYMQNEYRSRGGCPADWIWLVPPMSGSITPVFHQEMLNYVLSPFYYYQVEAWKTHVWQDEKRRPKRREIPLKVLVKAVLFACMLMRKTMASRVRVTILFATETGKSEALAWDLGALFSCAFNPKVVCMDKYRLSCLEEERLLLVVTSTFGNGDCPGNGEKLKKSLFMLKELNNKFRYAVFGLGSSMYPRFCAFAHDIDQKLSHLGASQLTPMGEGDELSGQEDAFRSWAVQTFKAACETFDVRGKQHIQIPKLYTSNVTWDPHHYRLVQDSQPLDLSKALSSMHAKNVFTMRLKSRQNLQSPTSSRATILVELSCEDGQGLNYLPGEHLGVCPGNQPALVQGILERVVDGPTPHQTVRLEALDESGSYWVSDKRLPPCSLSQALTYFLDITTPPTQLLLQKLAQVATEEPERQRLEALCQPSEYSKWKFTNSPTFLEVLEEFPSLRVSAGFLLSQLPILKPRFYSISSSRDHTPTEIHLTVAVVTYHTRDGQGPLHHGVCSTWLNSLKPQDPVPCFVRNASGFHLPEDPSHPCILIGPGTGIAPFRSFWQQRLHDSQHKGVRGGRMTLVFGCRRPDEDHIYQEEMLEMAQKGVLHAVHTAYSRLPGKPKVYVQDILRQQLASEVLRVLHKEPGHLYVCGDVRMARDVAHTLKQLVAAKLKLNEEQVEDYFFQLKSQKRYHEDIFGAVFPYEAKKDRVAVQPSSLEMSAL

Row | Molecule | IC50 (Human Cartilage; Homo sapiens) | ED50 [1, 2] | further results
1 | 2S-amino-6-[(1-iminoethyl)amino]-N-(1H-tetrazol-5-yl)hexanamide, hydrate, dihydrochloride [Example 1] |  |  | i-NOS selectivity relative to NIL amide or NIL dimethylamide (i-NOS; compared with NIL amide or NIL dimethylamide): more selective
2 | CC(=N)NCC(F)=CCC[C@H](N)C(=O)O (mixture of isomers) [Example B, (2S,5E/Z)-2-amino-6-fluoro-7-[(1-iminoethyl)amino]-5-heptenoic acid, dihydrochloride] | 0.2 µM |  | 
3 | CC(=N)NC/C(F)=C\CC[C@H](N)C(=O)O [Example A, (2S,5E)-2-amino-6-fluoro-7-[(1-iminoethyl)amino]-5-heptenoic acid, dihydrochloride, monohydrate] | 0.1 µM | < 0.1 mg/kg | ED50 ([1]; dihydrochloride, monohydrate): <0.1 mg/kg
4 | CC(=N)NC/C(F)=C/CC[C@H](N)C(=O)O [Example D, (2S,5Z)-2-amino-6-fluoro-7-[(1-iminoethyl)amino]-5-heptenoic acid, trihydrochloride, dihydrate] | 2.5 µM | > 10 mg/kg | 
5 | CC(=NO)NC/C(F)=C\CC[C@H](N)C(=O)O [Example G, (2S,5E)-2-amino-6-fluoro-7-[(1-hydroximinoethyl)amino]-5-heptenoic acid] |  | < 0.1 mg/kg | melting point: 198 to 200 °C
6 | CC(=N)NC/C(F)=C\CC[C@H](N)C(=O)Nc1nnn[nH]1 [Example H, (2S,5E)-2-amino-6-fluoro-7-[(1-iminoethyl)amino]-N-(1H-tetrazol-5-yl) 5-heptenamide, dihydrochloride] |  | < 0.3 mg/kg | 
7 | CC(=N)NC/C(F)=C\CC[C@](C)(N)C(=O)O.Cl.Cl [Example HH, (2S,5E)-2-amino-2-methyl-6-fluoro-7-[(1-iminoethyl)amino]-5-heptenoic acid, dihydrochloride] | 0.4 µM | 0.4 mg/kg | 
8 | COC[C@](N)(CSCCNC(C)=N)C(=O)O [Example J, 2-[[[2-[(1-Iminoethyl)amino]ethyl]thio]methyl]-O-methyl-D-serine, dihydrochloride] |  |  | IC50 (Human Cartilage): 8.2 µM
9 | CC(=N)NC/C=C\CC[C@](C)(N)C(=O)O [Example LL, (2S,5Z)-7-acetimidoylamino-2-amino-2-methyl-hept-5-enoic acid] | 0.8 µM | 0.3 mg/kg | 
10 | CC(=N)NCCCC[C@H](N)C(=O)Nc1nnn[nH]1 [Example NN, 2S-amino-6-[(1-iminoethyl)amino]-N-(1H-tetrazol-5-yl)hexanamide, hydrate, dihydrochloride] |  |  | i-NOS inhibitor potency relative to NIL amide or NIL dimethylamide (i-NOS; compared with 2S-amino-6-[(1-iminoethyl)amino]hexanamide (NIL amide) or NIL dimethylamide): more potent
11 | Cl.N=C1CCCC[C@H](CCCC[C@@H](N)C(=O)O)N1.O.O.O [Example V, (αR,2S)-α-aminohexahydro-7-imino-1H-azepine-2-hexanoic acid, trihydrate hydrochloride] | < 10 µM | < 3 mg/kg | 
12 | Cl.N=C1CCCC[C@@H](CCCC[C@H](N)C(=O)O)N1.O.O.O [Example W, (αS,2R)-α-aminohexahydro-7-imino-1H-azepine-2-hexanoic acid, trihydrate hydrochloride] | > 30 µM | > 10 mg/kg | 
13 | N=C1CCCC[C@H](CCCC[C@H](N)C(=O)O)N1 [Example X, (αS,2S)-α-aminohexahydro-7-imino-1H-azepine-2-hexanoic acid, trihydrate hydrochloride] |  |  | IC50 (Human Cartilage): < 10 µM
14 | N=C1CCCC[C@H](CCCC[C@H](N)C(=O)O)N1 [Example Z, (αS,2S)-α-aminohexahydro-7-imino-1H-azepine-2-hexanoic acid, trihydrate hydrochloride] | < 10 µM |  | inhibition at 22 µM (hiNOS): 85%
